Source: ChEMBL document CHEMBL1201862, “PubChem BioAssay data set” (2004)
Activity calls are given as the source filed them.

Legend:
[1] = biological target: Photoreceptor-specific nuclear receptor (Homo sapiens, UniProt Q9Y5X4); assay: ligands suppressing NR2E3 nuclear receptor activity – biochemical, TR-FRET, dose response (AID 463256); type: functional
[2] = biological target: Peroxisome proliferator-activated receptor gamma/Nuclear receptor coactivator 2 (Homo sapiens, UniProt P37231); assay: (§1) TR-FRET dose response biochemical High Throughput Screening assay for agonists of the steroid receptor coactivator 2 (SRC-2) recruitment by the peroxisome proliferator-activated receptor gamma (PPAR gamma): non-selective agonists. [Related pubchem assays: 1297, 1032 ]; type: functional
[3] = biological target: Peroxisome proliferator-activated receptor gamma/Nuclear receptor coactivator 3 (Homo sapiens, UniProt P37231); assay: as §1, with “3 (SRC-3)” for “2 (SRC-2)”, “1301 (Confirmation screen.), 1048 (Primary screen.)]” for “1297, 1032 ]”; type: functional
[4] = biological target: Peroxisome proliferator-activated receptor gamma/Nuclear receptor coactivator 1 (Homo sapiens, UniProt P37231); assay: as §1, with “1 (SRC-1)” for “2 (SRC-2)”, “assays (depositor defined):AID1300, AID1808, AID504735, AID631]” for “assays: 1297, 1032 ]”; type: protein assay
[5] = biological target: Peroxisome proliferator-activated receptor gamma/Nuclear receptor corepressor 2 (Homo sapiens, UniProt P37231+Q9Y618); assay: Counterscreen for NR2E3 inverse agonists: TR-FRET-based biochemical high throughput dose response assay to identify inverse agonists of the interaction between peroxisome proliferator-activated receptor gamma (PPARg) and nuclear receptor co-repressor 2 (NCOR2).; type: functional
NADPH oxidase 1 = biological target: T1, NADPH oxidase 1 (Homo sapiens, UniProt Q9Y5S8); assay: Late-stage luminescence-based cell-based dose response assay to identify inhibitors of NADPH oxidase 1 (NOX1): Purchased analogs 2.; type: functional
T1 sequence (Q9Y5S8 whole entry): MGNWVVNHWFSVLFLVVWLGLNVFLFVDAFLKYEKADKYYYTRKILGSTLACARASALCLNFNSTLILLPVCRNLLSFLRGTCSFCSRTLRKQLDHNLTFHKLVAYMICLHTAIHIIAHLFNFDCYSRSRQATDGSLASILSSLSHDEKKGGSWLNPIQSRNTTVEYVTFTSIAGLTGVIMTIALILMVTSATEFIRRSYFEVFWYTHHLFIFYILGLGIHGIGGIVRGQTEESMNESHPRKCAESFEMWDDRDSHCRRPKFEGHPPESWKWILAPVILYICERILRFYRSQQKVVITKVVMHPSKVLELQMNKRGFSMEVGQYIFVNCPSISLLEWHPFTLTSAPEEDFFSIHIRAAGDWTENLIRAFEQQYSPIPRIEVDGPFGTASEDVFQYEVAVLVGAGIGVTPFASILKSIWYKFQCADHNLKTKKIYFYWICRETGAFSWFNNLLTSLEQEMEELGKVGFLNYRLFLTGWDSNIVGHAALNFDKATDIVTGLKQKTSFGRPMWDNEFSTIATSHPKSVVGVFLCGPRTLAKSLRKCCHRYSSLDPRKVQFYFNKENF

[6] = biological target: Voltage-gated inwardly rectifying potassium channel KCNH2 (Homo sapiens, UniProt Q12809); assay: concentration-dependent hERG rescue from blockers – cell-based, thallium flux, dose response (AID 2121); type: ADME
[7] = NIH3T3 cell viability loss – ATP luminescence, mouse fibroblasts, counter-screen, dose response (AID 2010); type: functional, cell-based;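 note: cells exposed to compound for about 90 hours before reading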
[8] = A High Throughput Confirmatory Assay used to Identify Novel Compounds that Inhibit Mycobacterium Tuberculosis in the absence of Glycerol.; type: functional
[9] = Trypanosoma cruzi growth suppression in host cells – NIH3T3 host cells, beta-gal luminescence, confirmation (AID 2044); type: functional, cell-based;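 note: intracellular parasites grown in NIH/3T3 mouse fibroblasts as host cells; luminescent beta-galactosidase reporter signal from transgenic T. cruzi replicating inside host cells; inhibitors lower the luminescence signal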
[10] = biological target: Induced myeloid leukemia cell differentiation protein Mcl-1 (Homo sapiens, UniProt Q07820); type: functional
[11] = antiviral protection against BTV-induced cell death – arbovirus, BSR cells, confirmation (AID 1250); type: functional;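 note: protection from viral cytopathic effect measured as cell viability by ATP luminescence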
Estrogen receptor beta = Estrogen receptor beta (Homo sapiens, UniProt Q92731);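 note: recombinant ER-beta bound to coactivator SRC1 peptide in presence of estradiol agonist; inhibitors block coactivator peptide binding and lower the FRET signal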
Estrogen receptor = Estrogen receptor (Homo sapiens, UniProt P03372);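 note: potency for inhibiting coactivator peptide recruitment to the receptor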
[12] = biological target: Glyceraldehyde-3-phosphate dehydrogenase (Homo sapiens, UniProt P04406)
Bcl-2-related protein A1 [13] = biological target: T2, Bcl-2-related protein A1 (Mus musculus, UniProt Q07440); assay: Bfl-1 binding inhibitors, SAR follow-up, biochemical, fluorescence polarization (AID 1070)
T2 sequence (Q07440 whole entry): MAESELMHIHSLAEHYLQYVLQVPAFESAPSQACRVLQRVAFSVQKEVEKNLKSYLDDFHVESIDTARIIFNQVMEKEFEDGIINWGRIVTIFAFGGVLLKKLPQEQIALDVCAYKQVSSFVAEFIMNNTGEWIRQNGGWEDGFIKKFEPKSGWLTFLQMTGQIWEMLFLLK

Bcl-2-related protein A1 [14] = biological target: T2, Bcl-2-related protein A1; assay: small-molecule antagonists of Bfl-1/BH3 interaction – biochemical, TR-FRET, mouse Bfl-1, confirmation (AID 621);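 note: TR-FRET binding of GST-Bfl-1 to FITC-labelled Bid peptide via terbium antibody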
[15] = biological target: Sphingosine 1-phosphate receptor 3 (Homo sapiens, UniProt Q99500); assay: Dose response cell-based high throughput screening assay for antagonists of the Sphingosine 1-Phosphate Receptor 3 (S1P3). [Related pubchem assays: 1429, 485 ]; type: functional
[16] = biological target: 5-hydroxytryptamine receptor 1E (Homo sapiens, UniProt P28566); assay: Counterscreen assay for S1P3 antagonists: Dose response cell-based high throughput screening assay to identify antagonists of the 5-Hydroxytryptamine Receptor Subtype 1E (5HT1E). [Related pubchem assays: 1429, 485 ]; type: functional
[17] = biological target: T3, Neuropeptide Y receptor type 1 (Homo sapiens, UniProt P25929); assay: IC50 of human NPY-Y1 blockers – cell-based, dose response (AID 1277); type: functional
T3 sequence (P25929 whole entry): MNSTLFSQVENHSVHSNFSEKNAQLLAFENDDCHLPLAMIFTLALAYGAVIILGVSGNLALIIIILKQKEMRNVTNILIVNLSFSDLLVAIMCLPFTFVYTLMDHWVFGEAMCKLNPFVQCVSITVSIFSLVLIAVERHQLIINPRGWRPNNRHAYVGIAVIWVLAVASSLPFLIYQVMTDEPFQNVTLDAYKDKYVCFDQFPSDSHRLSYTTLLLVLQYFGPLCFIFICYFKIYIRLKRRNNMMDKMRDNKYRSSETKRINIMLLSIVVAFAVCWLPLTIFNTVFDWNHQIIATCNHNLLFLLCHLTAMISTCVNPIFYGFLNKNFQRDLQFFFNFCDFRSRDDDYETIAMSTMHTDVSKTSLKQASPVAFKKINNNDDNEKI

[18] = biological target: T4, Neuropeptide Y receptor type 2 (Homo sapiens, UniProt P49146); assay: IC50 for human NPY-Y2 blockade – cell-based, counter-screen for NPY-Y1 antagonist project, dose response (AID 1278); type: functional
T4 sequence (P49146 whole entry): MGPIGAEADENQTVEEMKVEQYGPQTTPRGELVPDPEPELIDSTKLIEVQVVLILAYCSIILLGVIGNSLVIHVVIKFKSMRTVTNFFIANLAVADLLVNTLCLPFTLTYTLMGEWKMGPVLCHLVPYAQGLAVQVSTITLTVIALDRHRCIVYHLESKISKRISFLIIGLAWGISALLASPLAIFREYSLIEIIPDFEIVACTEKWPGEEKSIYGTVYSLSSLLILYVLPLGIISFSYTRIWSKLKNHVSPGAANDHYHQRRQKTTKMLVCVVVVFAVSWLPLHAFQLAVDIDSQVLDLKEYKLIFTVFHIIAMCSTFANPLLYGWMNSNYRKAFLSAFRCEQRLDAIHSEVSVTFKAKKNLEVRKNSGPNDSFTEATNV

Sequence of Peroxisome proliferator-activated receptor gamma/Nuclear receptor coactivator 3 (P37231 whole entry): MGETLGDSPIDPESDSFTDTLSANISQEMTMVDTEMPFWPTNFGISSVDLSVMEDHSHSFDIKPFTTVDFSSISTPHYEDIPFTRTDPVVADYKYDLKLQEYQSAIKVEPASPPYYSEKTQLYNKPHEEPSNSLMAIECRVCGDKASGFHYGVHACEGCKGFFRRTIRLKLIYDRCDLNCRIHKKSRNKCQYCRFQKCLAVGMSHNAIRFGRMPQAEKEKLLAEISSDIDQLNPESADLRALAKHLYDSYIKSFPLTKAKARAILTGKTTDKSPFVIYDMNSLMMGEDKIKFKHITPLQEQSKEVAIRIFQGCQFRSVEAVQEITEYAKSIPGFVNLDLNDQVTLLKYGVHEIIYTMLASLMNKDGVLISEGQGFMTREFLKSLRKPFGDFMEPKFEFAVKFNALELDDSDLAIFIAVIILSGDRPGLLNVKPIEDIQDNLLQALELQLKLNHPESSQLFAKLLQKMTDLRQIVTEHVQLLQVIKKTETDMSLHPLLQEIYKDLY
Sequence of Peroxisome proliferator-activated receptor gamma/Nuclear receptor coactivator 3 (Q9Y6Q9 whole entry, further chain): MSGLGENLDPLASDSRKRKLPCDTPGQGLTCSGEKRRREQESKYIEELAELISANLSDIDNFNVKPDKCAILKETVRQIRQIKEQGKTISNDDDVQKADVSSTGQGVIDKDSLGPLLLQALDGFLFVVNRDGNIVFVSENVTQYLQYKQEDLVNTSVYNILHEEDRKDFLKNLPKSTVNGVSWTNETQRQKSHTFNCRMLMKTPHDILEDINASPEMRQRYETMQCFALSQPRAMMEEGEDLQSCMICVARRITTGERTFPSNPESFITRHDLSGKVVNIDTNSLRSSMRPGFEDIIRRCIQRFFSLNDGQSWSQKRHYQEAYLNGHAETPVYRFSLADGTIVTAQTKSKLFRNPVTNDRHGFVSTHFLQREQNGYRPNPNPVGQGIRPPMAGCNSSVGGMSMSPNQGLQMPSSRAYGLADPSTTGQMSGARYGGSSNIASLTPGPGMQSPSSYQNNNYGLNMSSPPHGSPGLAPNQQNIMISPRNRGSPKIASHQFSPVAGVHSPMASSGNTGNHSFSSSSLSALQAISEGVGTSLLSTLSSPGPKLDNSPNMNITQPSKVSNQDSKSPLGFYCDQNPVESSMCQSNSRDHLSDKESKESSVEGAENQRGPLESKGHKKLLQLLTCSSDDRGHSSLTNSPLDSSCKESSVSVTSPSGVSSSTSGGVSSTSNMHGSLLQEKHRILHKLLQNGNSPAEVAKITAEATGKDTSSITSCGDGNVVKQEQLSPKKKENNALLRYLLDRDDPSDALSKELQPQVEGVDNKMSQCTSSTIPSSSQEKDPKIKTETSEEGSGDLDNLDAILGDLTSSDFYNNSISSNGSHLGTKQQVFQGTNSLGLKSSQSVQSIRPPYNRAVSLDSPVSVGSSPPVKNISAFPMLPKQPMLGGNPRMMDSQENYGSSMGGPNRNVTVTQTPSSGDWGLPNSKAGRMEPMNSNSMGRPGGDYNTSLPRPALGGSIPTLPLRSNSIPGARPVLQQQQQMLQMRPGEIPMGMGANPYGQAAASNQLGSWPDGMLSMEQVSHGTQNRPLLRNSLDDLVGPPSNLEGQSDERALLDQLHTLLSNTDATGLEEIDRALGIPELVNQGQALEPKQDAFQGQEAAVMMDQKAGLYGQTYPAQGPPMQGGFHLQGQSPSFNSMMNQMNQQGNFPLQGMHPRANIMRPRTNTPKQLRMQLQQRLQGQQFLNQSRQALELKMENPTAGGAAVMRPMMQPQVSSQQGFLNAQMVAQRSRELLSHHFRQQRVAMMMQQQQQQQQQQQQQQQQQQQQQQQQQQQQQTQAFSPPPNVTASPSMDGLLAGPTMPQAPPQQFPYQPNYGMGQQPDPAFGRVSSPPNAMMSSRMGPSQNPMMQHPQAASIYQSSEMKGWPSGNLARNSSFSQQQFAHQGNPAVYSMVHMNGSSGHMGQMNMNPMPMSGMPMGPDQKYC
Sequence of Peroxisome proliferator-activated receptor gamma/Nuclear receptor coactivator 1 (P37231 whole entry): as the sequence (P37231 whole entry) above
Sequence of Peroxisome proliferator-activated receptor gamma/Nuclear receptor coactivator 1 (Q15788 whole entry, further chain): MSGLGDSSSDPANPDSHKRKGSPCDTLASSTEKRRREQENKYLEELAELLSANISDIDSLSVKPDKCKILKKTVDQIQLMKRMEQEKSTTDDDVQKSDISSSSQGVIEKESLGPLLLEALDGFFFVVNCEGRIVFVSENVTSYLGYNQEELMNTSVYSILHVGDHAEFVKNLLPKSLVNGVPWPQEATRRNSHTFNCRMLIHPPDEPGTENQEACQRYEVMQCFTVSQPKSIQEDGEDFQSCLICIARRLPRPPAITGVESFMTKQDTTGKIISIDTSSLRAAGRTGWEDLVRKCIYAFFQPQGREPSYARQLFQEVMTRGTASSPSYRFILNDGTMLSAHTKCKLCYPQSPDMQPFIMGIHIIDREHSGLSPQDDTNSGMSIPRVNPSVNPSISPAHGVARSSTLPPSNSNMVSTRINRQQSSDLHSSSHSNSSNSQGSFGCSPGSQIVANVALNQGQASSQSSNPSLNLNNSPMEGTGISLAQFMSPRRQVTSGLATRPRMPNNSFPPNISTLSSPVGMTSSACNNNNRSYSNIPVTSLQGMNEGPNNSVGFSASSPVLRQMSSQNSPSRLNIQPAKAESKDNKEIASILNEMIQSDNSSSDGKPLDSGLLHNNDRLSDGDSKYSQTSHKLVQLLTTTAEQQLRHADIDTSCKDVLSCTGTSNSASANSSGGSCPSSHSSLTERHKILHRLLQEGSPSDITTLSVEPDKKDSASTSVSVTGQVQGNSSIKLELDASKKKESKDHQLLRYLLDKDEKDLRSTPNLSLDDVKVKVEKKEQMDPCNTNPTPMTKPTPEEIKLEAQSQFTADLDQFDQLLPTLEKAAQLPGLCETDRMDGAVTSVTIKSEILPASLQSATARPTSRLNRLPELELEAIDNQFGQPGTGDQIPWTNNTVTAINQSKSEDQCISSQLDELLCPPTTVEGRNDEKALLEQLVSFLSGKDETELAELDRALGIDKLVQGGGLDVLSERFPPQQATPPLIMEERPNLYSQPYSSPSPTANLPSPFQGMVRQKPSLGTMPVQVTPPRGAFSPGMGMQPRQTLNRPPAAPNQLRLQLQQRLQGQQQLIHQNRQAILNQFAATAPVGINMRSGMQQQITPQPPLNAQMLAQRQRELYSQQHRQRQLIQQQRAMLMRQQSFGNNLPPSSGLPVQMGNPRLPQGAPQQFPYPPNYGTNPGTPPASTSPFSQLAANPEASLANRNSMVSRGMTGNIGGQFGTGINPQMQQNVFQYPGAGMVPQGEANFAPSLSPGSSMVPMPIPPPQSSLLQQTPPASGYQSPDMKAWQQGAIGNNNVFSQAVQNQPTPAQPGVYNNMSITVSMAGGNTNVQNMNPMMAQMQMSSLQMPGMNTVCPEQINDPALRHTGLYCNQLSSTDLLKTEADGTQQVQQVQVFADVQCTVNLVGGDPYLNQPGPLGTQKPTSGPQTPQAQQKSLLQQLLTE
Sequence of Induced myeloid leukemia cell differentiation protein Mcl-1 (Q07820 whole entry): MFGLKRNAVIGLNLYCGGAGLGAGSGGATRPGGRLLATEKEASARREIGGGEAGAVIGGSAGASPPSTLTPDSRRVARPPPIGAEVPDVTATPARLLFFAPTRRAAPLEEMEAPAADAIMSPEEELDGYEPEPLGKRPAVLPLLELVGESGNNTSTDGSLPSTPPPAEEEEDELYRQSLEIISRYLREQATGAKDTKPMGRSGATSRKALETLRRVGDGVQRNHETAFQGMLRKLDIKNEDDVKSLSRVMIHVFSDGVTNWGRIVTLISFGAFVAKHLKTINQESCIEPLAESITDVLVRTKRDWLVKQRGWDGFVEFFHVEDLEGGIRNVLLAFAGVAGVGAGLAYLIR
Sequence of Sphingosine 1-phosphate receptor 3 (Q99500 whole entry): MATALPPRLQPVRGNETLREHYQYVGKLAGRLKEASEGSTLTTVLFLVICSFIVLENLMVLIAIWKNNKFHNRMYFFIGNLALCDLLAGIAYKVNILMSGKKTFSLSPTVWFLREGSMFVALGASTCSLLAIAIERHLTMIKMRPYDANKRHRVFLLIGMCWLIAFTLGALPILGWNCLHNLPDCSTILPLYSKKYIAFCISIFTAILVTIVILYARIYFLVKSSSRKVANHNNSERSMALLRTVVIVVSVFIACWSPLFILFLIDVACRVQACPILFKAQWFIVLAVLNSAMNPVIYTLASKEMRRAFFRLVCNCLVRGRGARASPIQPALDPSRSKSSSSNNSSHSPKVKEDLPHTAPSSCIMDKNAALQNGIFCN
Sequence of Glyceraldehyde-3-phosphate dehydrogenase (P04406 whole entry): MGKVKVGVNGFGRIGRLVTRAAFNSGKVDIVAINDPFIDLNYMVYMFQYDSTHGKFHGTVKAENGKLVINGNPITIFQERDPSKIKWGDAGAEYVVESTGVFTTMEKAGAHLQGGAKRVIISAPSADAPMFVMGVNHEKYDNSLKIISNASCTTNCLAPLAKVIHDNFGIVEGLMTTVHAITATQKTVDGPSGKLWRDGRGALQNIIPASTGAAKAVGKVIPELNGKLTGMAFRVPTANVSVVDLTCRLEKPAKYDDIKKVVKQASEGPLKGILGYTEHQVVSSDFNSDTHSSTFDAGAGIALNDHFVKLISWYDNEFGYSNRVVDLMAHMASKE

Structure (SMILES): O=C(COc1ccc2ccccc2c1)NCCNC(=O)COc1ccc2ccccc2c1
- IC50 [1]: 4.75 µM (active)
- EC50 [2]: 8.67 µM (active)
- EC50 [3]: 47.8 µM (not active)
- EC50 [4]: 8.38 µM (active)
- IC50 [5]: 5.82 µM (active)

Structure (SMILES): C=C(NNc1c(F)c(F)nc(F)c1F)c1ccc(OC)cc1
- IC50 (NADPH oxidase 1): > 17 µM (not active)

Structure (SMILES): CCOc1ccccc1NC(=O)C(=O)CC(=O)c1ccc(OC)cc1
- EC50 [6]: 3.01 µM (active)

Structure (SMILES): CCCCNc1nc(N(C)c2ccccc2)nc(-n2ccnc2)n1
- EC50 [7]: > 30 µM (not active)
- IC50 [8]: > 100 µM (active)
- EC50 [9]: 0.55 µM (active)

Structure (SMILES): CN1CCN(S(=O)(=O)c2ccc(NC(=S)NC(=O)c3ccc(Cl)cc3)cc2)CC1
- IC50 [10]: 4.19 µM (active)
- IC50 [11]: > 100 µM (active)

Structure (SMILES): CCOC(=O)C1=C(O)/C(=C\c2ccc(CNC(=O)C(=O)Nc3ccc(C)c(C)c3)o2)N=C1C
- IC50 (Estrogen receptor beta): > 50 µM (not active)
- IC50 (Estrogen receptor): 40.5 µM (not active)

Structure (SMILES): O=C1C(Cl)=C(N2CCOCC2)C(=O)N1c1c(Cl)cccc1Cl
- IC50 [12]: > 10 µM (inconclusive)
- IC50 (Bcl-2-related protein A1 [13]): > 100 µM (not active)
- IC50 (Bcl-2-related protein A1 [14]): > 100 µM (not active)

Structure (SMILES): Cc1ccc(NC(=O)C(OC(=O)c2ccccc2Cl)c2ccccc2)cc1Cl (stereo unspecified)
- IC50 [15]: 9.24 µM (active)
- IC50 [16]: 5.28 µM (active)

Structure (SMILES): CC1=CC(C)(C)N(C(=O)CNC2CCCCC2)c2cc(C)ccc21
- IC50 [17]: 6.84 µM (active)
- IC50 [18]: 12.3 µM (not active)
